Earlier results, collected in patent US11229595B2, “Skin barrier preparation and method therefor” (Johnson & Johnson Consumer Inc., priority 2019, dated 2022).

System: skin
Settings: eight volunteers, four compounds compared, patches during 24 hours

Compound: CN(C)CCCN1c2ccccc2CCc2ccccc21 [imipramine]
- increase of TEWL: increased the least TEWL

Compound: CCCCCCCCC(=O)O [nonanoic acid]
- increase of TEWL: increased the least TEWL
